Data: patent publication US20240173353A1, “UNIVERSAL CHIMERIC ANTIGEN RECEPTOR T-CELL AND APPLICATION THEREOF” (SHANGHAI IASO BIOTECHNOLOGY CO., LTD., priority 2021, published 2024)
Like-named read-outs stand apart in the source and are kept apart here.

Key:
[1] = test system: T cells; assay: UCAR-T preparation process with dasatinib added after editing; format: cell-based, human; settings: experimental group, 100 nM DS added after editing
Method: The inventors isolated CD3-positive T cells from PBMCs from three different donors using PanT kits, knocked out the B2M and TRAC genes, and performed LCK-T316I editing on the cells. Then the cells were divided into two portions, to one portion, 100 nM DS was added (experimental group), and to the other portion, a corresponding amount of DMSO was added as a control (control group). After 2 hr, to the experimental group and the control group, T cell activators (CD2/CD3/CD28, 25 ul/1M/mL) were added. After 48 hr of activation, the cells were infected with the anti-CD19 CAR molecule through lentivirus infection, and the medium was replaced 24 hr after the virus infection, and DS or DMSO was removed at the same time.

[2] = test system: anti-BCMA CAR-T cells; assay: Luciferase killing assay of anti-BCMA CAR-T on luciferase-positive target cells; settings: CBE3 and CBE3+sg12 groups, 100 nM dasatinib 12 hr, effector-to-target 1:1, 24 hr
[3] = test system: CD5-UCAR-T cells; settings: reduced to 0 nM, Jurkat 4 hr
Method: Subsequently, they were treated overnight with dasatinib at a concentration of 50 nM or 25 nM, respectively. […] After 4 hr of co-incubation, CD107a release in CD8 and CAR double-positive cells was detected.
After 4 hr of co-incubation, CD107a release from CD8/CAR double-positive cells was detected.

[4] = test system: T cells; assay: T cell activation by anti-CD3/CD28 DynaBeads, CD25/CD69/4-1BB expression by flow cytometry
Text: The inventors pre-treated T cells with dasatinib or DMSO for 5 hr, then activated T cells with anti-CD3/CD28 DynaBeads for 24 hr, and then detected the expression of activation molecules CD25, CD69 and 4-1BB by flow cytometry.
In order to verify the tolerance of the LCK-T316I mutation to the function of dasatinib, the inventors carried out experimental verification on the T cells with LCK edited with different sgRNA lengths prepared in Example 2.
The inventors isolated CD3-positive T cells from human peripheral blood and divided them into eleven portions for processing, with 1e5 cells in each portion. One of these portions was not treated with dasatinib, anti-CD3/CD28 DynaBeads were not added to activate TCR, and this portion was as the initial control group; the other 10 portions of cells were pretreated with different concentrations of dasatinib for 4 hr, ten concentrations ranging from 0 nM to 50 nM were set, and then anti-CD3/CD28 DynaBeads were added to activate TCR signals overnight. On the second day, the expression of CD25, CD69 and 4-1BB activation signals was detected, and the activation of TCR signals was detected. Two replicates were set for each group of experiments.
The inventors divided each of the three groups of edited cells into 6 sub-groups and cultured them in a flat-bottomed 96-well plate. Each sub-group contained two technical replicates, and each well contained 0.15×10^6 cells. […] Subsequently, the cells were cultured for 18 hr. The activated T cell surface marker molecule 4-1BB was detected by using the APC-labeled murine IgG monoclonal antibody, and the activated T cell surface marker molecule CD25 was detected by using the PE-labeled murine IgG monoclonal antibody, and the activated T cell surface marker CD69 was detected by FITC-labeled murine IgG monoclonal antibody.
The inventors conducted research using two groups of T cells (CBE3 control group and Km edited group) in the above experiments. The experimental procedure is basically the same as the above-mentioned experiment (FIG. 32B). The two groups of edited cells were each divided into 7 sub-groups and cultured them in a flat-bottomed 96-well plate. Each sub-group contained two technical replicates, and each well contained 0.15×10^6 cells. […] Subsequently, the cells were cultured for 18 hr. The activated T cell surface marker molecule 4-1BB was detected by using the APC-labeled murine IgG monoclonal antibody, and the activated T cell surface marker molecule CD25 was detected by using the PE-labeled murine IgG monoclonal antibody, and the activated T cell surface marker CD69 was detected by FITC-labeled murine IgG monoclonal antibody.

[5] = test system: normal human T lymphocytes; settings: in vitro; cited from earlier work
[6] = test system: anti-BCMA-CAR-T cells; assay: CD107a translocation of anti-BCMA-CAR-T cells co-incubated with target cells; format: cell-based, human; settings: LCK-sgRNA16 editing group (42% T316I), 100 nM dasatinib 12 hr
[7] = test system: CD19/BCMA bispecific CAR-T cells; assay: CD107a translocation of CD19/BCMA bispecific CAR-T cells; format: cell-based, human; settings: CAR-T cells with LCK-T316I mutation, 100 nM dasatinib 12 hr, U266B1 and Raji
Text: The inventors edited the prepared CD19/BCMA dual-target CAR-T by electroporation with the CBE3 protein, the RNP complexes (18 nt and 21 nt) of CBE3 and LCK-sgRNA12, and the RNP complexes (18 nt and 21 nt) of CBE3 and LCK-sgRNA16 respectively, to achieve three different groups of editing treatments. […] These target cells include U266B1 (BCMA positive), Raji (CD19 positive), K562 (negative control), allogeneic T cells (negative control) and blank Buffer control (negative control).

[8] = T cells, 20 nM dasatinib 4 hr, beads overnight
[9] = T cells, 25 nM dasatinib 4 hr, beads overnight
[10] = T cells, dasatinib increased to 50 nM, beads overnight

Structure (SMILES): Cc1nc(Nc2ncc(C(=O)Nc3c(C)cccc3Cl)s2)cc(N2CCN(CCO)CC2)n1 [dasatinib]
- percentage of B2M and TRAC double knockout [1]: more than 50%
- cytotoxicity of anti-BCMA CAR-T (luciferase value of RPMI-8226) [2]: significantly inhibited
- positive CD107a release ([3]; CD5-CART, repeat, 50 nM pretreatment): 12.1%
- positive CD107a release ([3]; sg12 control CD5-UCART, 50 nM pretreatment overnight): 12%
- positive CD107a release ([3]; sg16 (LCK-T316I) CD5-UCART, 50 nM pretreatment): 16%
- concentration that effectively inhibits T cell activation in vitro (minimum) ([4]; T cells, 0-50 nM gradient): 25 nM
- percentage of CD25 and 4-1BB double-positive cells [4, 8]: 2.09%
- percentage of CD25 and CD69 double-positive cells [4, 8]: 8.75%
- percentage of CD25 and CD69 double-positive cells [4, 9]: 1.06%
- percentage of double-positive cells (FIG. 20B, CD25 and 4-1BB as indicators) [4, 9]: 0.26%
- concentration sufficient to inhibit activation of TCR signaling ([4]; T cells, 5 hr pretreatment, beads 24 hr): 100 nM
- percentage of CD25 and CD69 double-positive cells [4, 10]: below 1%
- percentage of double-positive cells (FIG. 20B, CD25 and 4-1BB as indicators) [4, 10]: below 1%
- reduction of expression of activation molecules versus no dasatinib ([4]; sgRNA16 group (about 50% edited), 100 nM dasatinib, anti-CD3/CD28 beads): 20%-50%
- viability of T cells [5]: will not affect the viability of T cells
- positive CD107a translocation in CD8 and CAR double-positive cells ([6]; RPMI-8226): 44.7%
- positive CD107a translocation in CD8 and CAR double-positive cells ([6]; U266B1): 39.6%
- CD107a positive rate [7]: above 50%
